Key:
Assay in all cases: Kinase inhibitor library screening, PrestoBlue cell viability, 1 or 10 μM, 72 h
501Mel cells (parental) = conditions: 501Mel Parental, 72 h
Summary of the method: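 Parental cells and Vemurafenib-resistant (XP) or Dabrafenib-resistant (GP) derivatives were treated with library kinase inhibitors at 1 and 10 μM for 72 h. Viability measured by PrestoBlue and expressed as % of untreated cells, at least in duplicate.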

[1] = tested on: 501Mel-GP cells (Dabrafenib-resistant); conditions: 501Mel GP, 72 h
[2] = tested on: 501Mel-XP cells (Vemurafenib-resistant); conditions: 501Mel XP, 72 h
A375 cells (parental) = conditions: A375 Parental, 72 h
[3] = tested on: A375-GP cells (Dabrafenib-resistant); conditions: A375 GP, 72 h
[4] = tested on: A375-XP cells (Vemurafenib-resistant); conditions: A375 XP, 72 h
IGR37 cells (parental) = conditions: IGR37 Parental, 72 h
[5] = tested on: IGR37-GP cells (Dabrafenib-resistant); conditions: IGR37 GP, 72 h
[6] = tested on: IGR37-XP cells (Vemurafenib-resistant); conditions: IGR37 XP, 72 h

| SMILES | cell viability (kinase inhibitor library screening) (501Mel cells (parental); 1μΜ) [%] | cell viability (kinase inhibitor library screening) (501Mel cells (parental); 10μΜ) [%] | cell viability (kinase inhibitor library screening) ([1]; 1μΜ) [%] | cell viability (kinase inhibitor library screening) ([1]; 10μΜ) [%] | cell viability (kinase inhibitor library screening) ([2]; 1μΜ) [%] | cell viability (kinase inhibitor library screening) ([2]; 10μΜ) [%] | cell viability (kinase inhibitor library screening) (A375 cells (parental); 10μΜ) [%] | cell viability (kinase inhibitor library screening) (A375 cells (parental); 1μΜ) [%] | cell viability (kinase inhibitor library screening) ([3]; 1μΜ) [%] | cell viability (kinase inhibitor library screening) ([3]; 10μΜ) [%] | cell viability (kinase inhibitor library screening) ([4]; 1μΜ) [%] | cell viability (kinase inhibitor library screening) ([4]; 10μΜ) [%] | cell viability (kinase inhibitor library screening) (IGR37 cells (parental); 1μΜ) [%] | cell viability (kinase inhibitor library screening) (IGR37 cells (parental); 10μΜ) [%] | cell viability (kinase inhibitor library screening) ([5]; 1μΜ) [%] | cell viability (kinase inhibitor library screening) ([5]; 10μΜ) [%] | cell viability (kinase inhibitor library screening) ([6]; 10μΜ) [%] | cell viability (kinase inhibitor library screening) ([6]; 1μΜ) [%] |
| --- | --- | --- | --- | --- | --- | --- | --- | --- | --- | --- | --- | --- | --- | --- | --- | --- | --- | --- |
| Cc1[nH]c(/C=C2\C(=O)Nc3ccc(S(=O)(=O)Cc4c(Cl)cccc4Cl)cc32)c(C)c1C(=O)N1CCC[C@@H]1CN1CCCC1 [PHA-665752] | 100.2 | 0.232 | 86.9 | -0.7 | 70.6 | -0.7 | 1.9 | 98.9 | 96.1 | 0.5 | 99.9 | 0.9 | 99.2 | 0.24 | 98.8 | 0.8 | 0.9 |  |
| CCc1cccc(CC)c1NC(=O)N1Cc2n[nH]c(NC(=O)c3ccc(N4CCN(C)CC4)cc3)c2C1 [PHA-680632] | 104.0 | 95.7 | 105.0 | 79.1 | 96.6 | 75.1 | 37.5 | 85.1 | 81.0 | 37.4 | 93.5 | 51.3 | 93.9 | 73.1 | 92.2 | 78.7 | 40.2 | 96.4 |
| CNC(=O)c1nn(C)c2c1C(C)(C)Cc1cnc(Nc3ccc(N4CCN(C)CC4)cc3)nc1-2 [PHA-848125] | 75.4 | 14.7 | 63.8 | 28.1 | 75.1 | 14.5 | 5.7 | 56.7 | 57.9 | 4.3 | 66.4 | 7.5 | 95.1 | 70.2 | 78.8 | 66.9 | 31.7 | 75.2 |

Source: publication PMC6364417, “Kinase inhibitor library screening identifies synergistic drug combinations effective in sensitive and resistant melanoma cells” (Journal of Experimental & Clinical Cancer Research : CR, 2019)
